This passage reports IC50 results from US10167279B2 (NOVARTIS AG, priority 2014, dated 2019).

In this test the target is C-Raf FL (Homo sapiens (Human), UniProt P04049, Y340E/Y341E). Put plainly: In vitro Raf activity determination (Alpha Screen, phospho-MEK), C-Raf FL (full length, Y340E/Y341E). The test is classed as biochemical. To be noted: ATP 1 μM; 60 min pre-incubation; 1 hour reaction; column head does not say FL or TR. The source says: The activity of a compound according to the present invention can be assessed by well-known in vitro & in vivo methods. Raf inhibition data provided herein was obtained using the following procedures.
Sf9 cells co-expressing both proteins were lysed and subjected to immobilized nickel chromatography and eluted with Imidazole. A second column (StrepII binding column) was used and eluted with desthiobiotin. Protein Tags were removed using Prescission enzyme and the protein was further purified using a flowthrough step to remove tags.
C-Raf TR refers to a truncated C-Raf protein, a Δ1-324 deletion mutant. C-Raf FL refers to the full-length C-Raf protein.
Full length MEK1 with an inactivating K97R ATP binding site mutation is utilized as a RAF substrate. The MEK1 cDNA was subcloned with an N-terminal (his)6 tag into a vector for E. Coli expression. The MEK1 substrate was purified from E. Coli lysate by nickel affinity chromatography followed by anion exchange. The final MEK1 preparation was biotinylated (Pierce EZ-Link Sulfo-NHS-LC-Biotin) and concentrated.
Assay protocol: Raf and biotinylated Mek (kinase dead) were combined at 2× final concentrations in assay buffer (50 mM Tris, pH 7.5, 15 mM MgCl2, 0.01% BSA and 1 mM DTT) and dispensed […] per well in assay plates (Greiner white 384 well assay plates #781207) containing […] of 40× of a Raf kinase inhibitor test compound diluted in 100% DMSO. The plate was incubated for 60 minutes at room temperature. […] The reactions were stopped and the phosphorylated product was measured using a rabbit anti-p-MEK (Cell Signaling, #9121) antibody and the Alpha Screen IgG (ProteinA) detection Kit (PerkinElmer #6760617R), by the addition of […] to the well of a mixture of the antibody (1:2000 dilution) and detection beads (1:2000 dilution of both beads) in Stop/bead buffer (25 mM EDTA, 50 mM Tris, pH 7.5, 0.01% Tween20). The additions were carried out under dark conditions to protect the detection beads from light. A lid was placed on top of the plate and incubated for 1 hour at room temperature, after which the luminescence was read on a PerkinElmer Envision instrument. The concentration of each compound for 50% inhibition (IC50) was calculated by non-linear regression using XL Fit data analysis software.
As a reminder, the IC50 is the concentration that inhibits the measured activity by half. Low values mean inhibition by little substance, high ones a need for much substance. The molecule `Cc1ccc(NC(=O)c2ccnc(C(C)(C)F)c2)cc1-c1cc(OCCO)nc(C2CCOCC2O)c1` (stereo not drawn) [Example 244, 2-(2-fluoropropan-2-yl)-N-(3-(2-(2-hydroxyethoxy)-6-(3-hydroxytetrahydro-2H-pyran-4-yl)pyridin-4-yl)-4-methylphenyl) isonicotinamide] came in with an IC50 of 3 nM.

`Cc1ccc(NC(=O)NCCC(C)(C)C)cc1-c1cc(OCCO)nc(C2CCOCC2)c1` [Example 319, 1-(3,3-dimethylbutyl)-3-(3-(2-(2-hydroxyethoxy)-6-(tetrahydro-2H-pyran-4-yl)pyridin-4-yl)-4-methylphenyl)urea] showed an IC50 of 0.1 nM.

In turn, `CCOc1ncc(-c2cc(NC(=O)c3ccnc(C(C)(C)C#N)c3)cnc2C)cc1C1(CF)CCOC1` (stereo not drawn) [Example 166, 2-(2-cyanopropan-2-yl)-N-(6′-ethoxy-5′-(3-(fluoromethyl)tetrahydrofuran-3-yl)-2-methyl-[3,3′-bipyridin]-5-yl)isonicotinamide] gave an IC50 of 2 nM.

In turn, `COC1(c2cc(-c3cc(NC(=O)c4cc(C(F)(F)F)ccn4)ccc3C)cc(NCCO)n2)COC1` [Example 154, N-(3-(2-((2-hydroxyethyl)amino)-6-(3-methoxyoxetan-3-yl)pyridin-4-yl)-4-methylphenyl)-4-(trifluoromethyl)picolin-amide] gave an IC50 of 0.04 nM.

For `Cc1ccc(NC(=O)c2ccnc(C(C)(C)C#N)c2)cc1-c1cc(C2CCOCC2)nc(N(CCO)CCO)c1` [Example 179, N-(3-(2-(bis(2-hydroxyethyl)amino)-6-(tetrahydro-2H-pyran-4-yl)pyridin-4-yl)-4-methylphenyl)-2-(2-cyanopropan-2-yl) isonicotinamide], the 50% inhibitory concentration (IC50) was determined as 0.795 nM.

As for “N-(3-(2- (hydroxymethyl)-2- methyl-3-oxo-8- (tetrahydro-2H- pyran-4-yl)-3,4-dihydro- 2H- benzo[b][1,4]oxazin-6- yl)-4-methylphenyl)-5- (trifluoromethyl) pyridazine-3-carboxamide [Example 204]”, the IC50 was determined as 0.02 nM.

Take `Cc1ccc(NC(=O)c2ccnc(C(C)(C)F)c2)cc1-c1cnc(OCCO)c(C2(F)COC2)c1` [Example 41, N-(3-(5-(3-fluorooxetan-3-yl)-6-(2-hydroxyethoxy)pyridin-3-yl)-4-methylphenyl)-2-(2-fluoropropan-2-yl)isonicotinamide]: the IC50 was determined as 0.245 nM.

On to `Cc1ccc(NC(=O)c2ccnc(C(C)(F)F)c2)cc1-c1cc(OCCO)nc(C2(CF)COC2)c1` [Example 56, 2-(1,1-difluoroethyl)-N-(3-(2-(3-(fluoromethyl)oxetan-3-yl)-6-(2-hydroxyethoxy)pyridin-4-yl)-4-methylphenyl)isonicotin-amide], for which the IC50 is 0.281 nM.

`Cc1nc2cc(C3CCOCC3)cc(-c3cc(NC(=O)c4cnnc(C(F)(F)F)c4)ccc3C)c2[nH]1` [Example 221, N-(4-methyl-3-(2-methyl-5-(tetrahydro-2H-pyran-4-yl)-1H-benzo[d]imidazol-7-yl)phenyl)-6-(trifluoromethyl) pyridazine-4-carboxamide] displayed an IC50 of 2 nM.

The molecule `CCOc1ncc(-c2cc(NC(=O)c3ccnc(C(F)(F)F)c3)ccc2C)cc1C1(C#N)CCOC1` (stereo not drawn) [Example 168, N-(3-(5-(3-cyanotetrahydrofuran-3-yl)-6-ethoxypyridin-3-yl)-4-methylphenyl)-2-(trifluoromethyl) isonicotinamide] had an IC50 of 0.3 nM.

For the molecule `CCOc1ncc(-c2cc(NC(=O)c3ccnc(C(C)(C)F)c3)cnc2C)cc1C1(C#N)CCOC1` (stereo not drawn) [Example 170, N-(5′-(3-cyanotetrahydrofuran-3-yl)-6′-ethoxy-2-methyl-[3,3′-bipyridin]-5-yl)-2-(2-fluoropropan-2-yl) isonicotinamide], the IC50 stood at 2 nM.

In the case of `Cc1ccc(NC(=O)c2ccnc(C(C)(C)F)c2)cc1-c1cc(C2(O)COC2)cc(C2(F)COC2)c1` [Example 137, N-(3′-(3-fluorooxetan-3-yl)-5′-(3-hydroxyoxetan-3-yl)-6-methyl-[1,1′-biphenyl]-3-yl)-2-(2-fluoropropan-2-yl)isonicotinamide], inhibition was half-maximal at 3.32 nM (IC50).

In the case of `COc1ncc(-c2cc(NC(=O)c3cc(C(F)(F)F)cc(C(C)(C)N)n3)ccc2C)cc1C1(O)COC1` [Example 19, 6-(2-aminopropan-2-yl)-N-(3-(5-(3-hydroxyoxetan-3-yl)-6-methoxypyridin-3-yl)-4-methylphenyl)-4-(trifluoromethyl)picolinamide], 7 nM corresponded to half-maximal inhibition (IC50).

Molecule `COc1ncc(-c2cc(C(=O)Nc3ccnc(C(F)(F)F)c3)ccc2C)cc1C1(O)COC1` [Example 17, 3-(5-(3-hydroxyoxetan-3-yl)-6-methoxypyridin-3-yl)-4-methyl-N-(2-(trifluoromethyl)pyridin-4-yl)benzamide] gave a 50% inhibitory concentration (IC50) of 0.7 nM.

`Cc1ccc(NC(=O)C2CCNC(C(F)(F)F)C2)cc1-c1cc(C2CCOCC2)nc(N2CCC(C)(N)CC2)c1` (stereo not drawn) [Example 320] had an IC50 of 350 nM.

In turn, `Cc1ccc(NC(=O)c2ccnc(C(F)(F)F)c2)cc1-c1cc(NCCO)nc(C2(O)COC2)c1` [Example 299, N-(3-(2-((2-hydroxyethyl)amino)-6-(3-hydroxyoxetan-3-yl)pyridin-4-yl)-4-methylphenyl)-2-(trifluoromethyl) isonicotinamide] registered a half-inhibitory concentration (IC50) of 0.1 nM.

Molecule `COc1ncc(-c2cc(NC(=O)c3cc(C(F)(F)F)cc(C(C)(C)N)n3)cnc2C)cc1C1(C(F)F)COC1` [Example 148, 6-(2-aminopropan-2-yl)-N-(5′-(3-(difluoromethyl)oxetan-3-yl)-6′-methoxy-2-methyl-[3,3′-bipyridin]-5-yl)-4-(trifluoromethyl)picolin-amide] showed an IC50 of 9.2 nM.

`Cc1ccc(NC(=O)c2cccc(C(F)(F)F)c2)cc1-c1cc(OCCO)nc(C2CCOCC2)c1` [Example 189, N-(3-(2-(2-hydroxyethoxy)-6-(tetrahydro-2H-pyran-4-yl)pyridin-4-yl)-4-methylphenyl)-3-(trifluoromethyl) benzamide] displayed an IC50 of 0.136 nM.

In turn, `COC1(c2cc(-c3cc(NC(=O)c4ccnc(C(C)(C)F)c4)cnc3C)cnc2OCCO)COC1` [Example 61, 2-(2-fluoropropan-2-yl)-N-(6′-(2-hydroxyethoxy)-5′-(3-methoxyoxetan-3-yl)-2-methyl-[3,3′-bipyridin]-5-yl)isonicotinamide] had an IC50 of 1.32 nM.

The molecule `CCC(F)(F)c1cc(C(=O)Nc2cnc(C)c(-c3cc(C4CCOCC4)nc(N4CCC(O)CC4)c3)c2)ccn1` [Example 185, 2-(1,1-difluoropropyl)-N-(2′-(4-hydroxypiperidin-1-yl)-2-methyl-6′-(tetrahydro-2H-pyran-4-yl)-[3,4′-bipyridin]-5-yl) isonicotinamide] came in with an IC50 of 0.331 nM.

Take `CCOc1nnc(-c2cc(NC(=O)NCCC(C)(C)C)ccc2C)cc1C1CCOCC1` [Example 318, 1-(3,3-dimethylbutyl)-3-(3-(6-ethoxy-5-(tetrahydro-2H-pyran-4-yl)pyridazin-3-yl)-4-methylphenyl)urea]: the IC50 stood at 0.1 nM.

Regarding `COCCNc1nnc(-c2cc(NC(=O)c3ccnc(C(F)(F)F)c3)ccc2C)cc1C1CCOCC1` [Example 307, N-(3-(6-((2-methoxyethyl)amino)-5-(tetrahydro-2H-pyran-4-yl)pyridazin-3-yl)-4-methylphenyl)-2-(trifluoromethyl)isonicotinamide], the IC50 came out at 0.08 nM.

With `Cc1ccc(NC(=O)c2ccnc(C(F)(F)F)c2)cc1-c1cc(C2(O)COC2)cc(C2(F)COC2)c1` [Example 135, N-(3′-(3-fluorooxetan-3-yl)-5′-(3-hydroxyoxetan-3-yl)-6-methyl-[1,1′-biphenyl]-3-yl)-2-(trifluoromethyl)isonicotin-amide], 0.605 nM corresponded to half-maximal inhibition (IC50).

As for `Cc1ccc(NC(=O)c2ccnc(C(F)(F)F)c2)cc1-c1cc(C2CCOCC2)c(NC[C@H](C)O)nn1` [Example 311, (S)-N-(3-(6-((2-hydroxypropyl)amino)-5-(tetrahydro-2H-pyran-4-yl)pyridazin-3-yl)-4-methylphenyl)-2-(trifluoromethyl) isonicotinamide], the IC50 was found to be 0.05 nM.

In turn, `Cc1ncc(NC(=O)c2ccc(CO)c(C(F)(F)F)c2)cc1-c1cccc(C2COC2)c1` [Example 7] came in with an IC50 of 1 nM.

As for `Cc1ncc(NC(=O)c2cccc(C(F)(F)F)c2)cc1-c1cc(NCCO)nc(C2(O)CCOCC2)c1` [Example 302, N-(2′-((2-hydroxyethyl)amino)-6′-(4-hydroxytetrahydro-2H-pyran-4-yl)-2-methyl-[3,4′-bipyridin]-5-yl)-3-(trifluoromethyl) benzamide], 1.53 nM corresponded to half-maximal inhibition (IC50).

Molecule `Cc1ccc(NC(=O)c2ccnc(C(F)F)c2)cc1-c1cc(OCCO)nc(C2(F)COC2)c1` [Example 53] displayed a half-inhibitory concentration (IC50) of 0.624 nM.
